Reference: patent publication US20230172897A1, “METHODS OF TREATING BREAST CANCERS WITH SELECTIVE ANDROGEN RECEPTOR MODULATORS AND ADDITIONAL THERAPEUTIC AGENTS” (VERU, INC., priority 2021, published 2023)

What was measured:
ERα, ERβ, GR, or MR = test: Cross-reactivity with other nuclear hormone receptors (summary); type: cell-based, Rat; details: agonist and antagonist mode
Protocol: In order to determine whether SARM compounds of Formulae I-XIV as described hereinaffected other nuclear hormone receptor signaling, the ability of a compound represented by Formula VIII to stimulate (agonist) or inhibit (antagonist) ERα-, ERβ-, GR-, PR-, or MR-mediated transcriptional activation, was analyzed.
Rat GR, MR, PR, ER-α and ER-β were individually cloned into a pCR3.1 vector backbone. Sequencing was performed to verify the absence of any mutations. HEK-293 cells were plated at 90,000 cells per well of a 24 well plate in Dulbecco's Minimal Essential Media supplemented with 5% charcoal-stripped FBS. The cells were transfected using Lipofectamine (Invitrogen, Carlsbad, Calif.) with 0.25 μg GRE-LUC for GR, MR and PR and ERE-LUC for ER-α and ER-β, 0.5 ng CMV-LUC (renilla luciferase) and 12.5-25 ng of the respective expression vector for each receptor. […] Luciferase assays were performed 48 h after transfection. Transcriptional activation values are represented as firefly luciferase normalized to renilla luciferase.

[1] = test system: MDA-MB-231 breast cancer cells stably transfected with AR; test: Proliferation (Coulter counter) of MDA-MB-231 cells stably transfected with AR; type: cell-based; details: 6 days
Protocol: MDA-MB-231 cells stably transfected with AR using lentivirus were treated with the indicated ligands for 6 days and the number of cells counted using Coulter counter.

AR [2] = biological target: T1, AR (Homo sapiens, UniProt P10275); test: AR transactivation (GRE-LUC) in HEK-293 or MDA-MB-231 cells; type: cell-based; set-up: expressed in transfected cells; details: cells transfected with AR
T1 sequence (P10275 1-920): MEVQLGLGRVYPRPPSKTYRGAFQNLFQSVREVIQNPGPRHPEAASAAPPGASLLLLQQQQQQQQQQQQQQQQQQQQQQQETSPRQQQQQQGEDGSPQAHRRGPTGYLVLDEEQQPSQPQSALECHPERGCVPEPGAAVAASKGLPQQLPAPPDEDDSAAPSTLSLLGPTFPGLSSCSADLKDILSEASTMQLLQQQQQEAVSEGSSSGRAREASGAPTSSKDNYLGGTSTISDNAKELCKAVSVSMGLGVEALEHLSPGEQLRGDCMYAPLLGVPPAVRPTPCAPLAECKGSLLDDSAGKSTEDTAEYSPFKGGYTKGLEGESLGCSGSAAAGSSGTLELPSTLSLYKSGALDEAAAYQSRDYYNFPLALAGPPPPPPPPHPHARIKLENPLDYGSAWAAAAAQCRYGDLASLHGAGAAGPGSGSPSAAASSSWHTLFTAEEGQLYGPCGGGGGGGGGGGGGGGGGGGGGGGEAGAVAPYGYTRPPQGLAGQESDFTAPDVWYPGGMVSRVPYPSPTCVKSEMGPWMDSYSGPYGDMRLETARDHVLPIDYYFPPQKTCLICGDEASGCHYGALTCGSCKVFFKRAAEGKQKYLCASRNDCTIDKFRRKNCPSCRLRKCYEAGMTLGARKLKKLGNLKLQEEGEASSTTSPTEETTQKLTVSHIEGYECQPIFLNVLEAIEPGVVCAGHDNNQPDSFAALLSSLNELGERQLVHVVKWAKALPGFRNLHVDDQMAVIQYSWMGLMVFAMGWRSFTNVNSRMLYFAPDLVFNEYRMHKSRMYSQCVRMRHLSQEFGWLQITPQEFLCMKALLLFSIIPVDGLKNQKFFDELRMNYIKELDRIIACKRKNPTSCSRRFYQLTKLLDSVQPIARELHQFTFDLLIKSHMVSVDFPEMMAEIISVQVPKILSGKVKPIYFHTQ
Protocol: Though AR transactivation assay was performed in HEK-293 cells, the ability of ligands to function as agonists or antagonists depends on cellular microenvironment. […] The cells were treated 24 h after transfection and luciferase assay performed 48 h after transfection.

MDA-MB-231-AR cells = test: Morphology of MDA-MB-231 cells stably transfected with AR; type: cell-based; details: 3 days
Protocol: MDA-MB-231 cells were stably transfected with AR using lentivirus. […] Live cells were visualized using a light-microscope and photographed. The cells were imaged at the same magnification and under the same microscopic conditions.
MDA-MB-231 cells were stably transfected with AR using lentivirus and were treated with vehicle or AR agonists at the indicated concentrations. At the end of 3 days of incubation, the cells were imaged under a microscope (40×).

[3] = test system: MDA-MB-231-AR triple negative breast cancer cells; test: MDA-MB-231-AR xenograft in nude mice; type: in vivo; details: for body weight / tumor weights: all doses
Protocol: MDA-MB-231-AR triple negative breast cancer cells (2 million cells/mouse; MDA-MB-231 cells stably transfected with AR using lentivirus) were mixed with matrigel (1:1) and injected subcutaneously into the flanks of intact female nude mice (n=5/group). When the tumors reached 150-200 mm^3, the animals were separated into two groups, one receiving vehicle and the other receiving 30 mg/kg Formula VIII orally. Tumor volume was measured thrice weekly and % tumor growth inhibition (TGI) was calculated. At the end of 35 days of treatment, the animals were sacrificed, tumors excised, weighed, and collected for various analyses. Blood was collected and serum separated for drug concentration measurement.

AR [4] = biological target: T1, AR; details: cited from earlier work
[5] = Completed and ongoing clinical studies (overall tolerability); type: in vivo, human; details: single doses up to 100 mg; multiple doses up to 30 mg once daily up to 14 days
Text: These include: 1. Protocol G100401, a Phase 1 single ascending dose study in 96 healthy, young, male volunteers; 2. Protocol G100402, a Phase 1 multiple ascending dose study in 50 healthy, young, male volunteers, and 23 elderly male volunteers with truncal obesity; 3. Protocol G100503, a Phase 1 single dose pharmacokinetic study to assess the effect of a dosage regimen that simulates a sustained release formulation to an immediate release formulation in 18 healthy, young male volunteers and 18 postmenopausal women; 4. Protocol G100506, a Phase 1 single dose pharmacokinetic study to assess the relative bioavailability of a 3 mg […] formulation to be used during continued clinical development and to assess the effect of food on the pharmacokinetics of the 3 mg softgel formulation in 27 healthy, young, male volunteers; 5. Protocol 006, a Phase 1 single dose and multiple dose pharmacokinetic study in 24 postmenopausal, Japanese women; 6. Protocol G200501, a Phase 2 study in 60 postmenopausal women and 60 elderly men to assess lean body mass and physical function; 7. Protocol 003, a Phase 1b study in 44 postmenopausal women; 8. Protocol G200502, a Phase 2b study in 159 men and postmenopausal women with cancer to assess lean body mass and physical function; 9.

Row | SMILES | receptor-mediated transactivation of ERα, ERβ, GR, or MR (ERα, ERβ, GR, or MR) | proliferation of MDA-MB-231 cells stably transfected with AR [1] | AR function (agonist/antagonist) in transactivation (AR [2]) | morphology of MDA-MB-231-AR cells (more anchorage-dependent phenotype) (MDA-MB-231-AR cells) | body weight [3] | tumor weights [3] | TGI ([3]; all doses tried: 5, 10, 30 mg per kg) | concentration at which it binds to and activates the AR (AR [4]) | tolerability [5] | uterus weight ([3]; 30 mg/kg orally) | reduction of tumor weights ([3]; 30 mg/kg orally, 35 days) | toxicity / body weight ([3]; 30 mg/kg orally, 35 days) | tumor growth inhibition (TGI) ([3]; 30 mg/kg orally, 35 days) | TGI ([3]; all doses tried: 5, 10 mg per kg)
1 | C[C@](O)(COc1ccc(C#N)cc1)C(=O)Nc1ccc(C#N)c(C(F)(F)F)c1 [Formula IX, (S)—N-(4-Cyano-3-(trifluoromethyl)phenyl)-3-(4-cyanophenoxy)-2-hydroxy-2-methylpropanamide] | do not stimulate or inhibit | inhibited the proliferation | agonists | altered the morphology | increase of body weight | reduced | ~85% | less than 10 nM | generally well-tolerated |  |  |  |  | 
2 | C[C@](O)(COc1ccc(C#N)cc1)C(=O)Nc1ccc(C#N)c(Cl)c1 [Formula VIII, (S)—N-(3-chloro-4-cyanophenyl)-3-(4-cyanophenoxy)-2-hydroxy-2-methylpropanamide] | do not stimulate or inhibit | inhibited the proliferation | agonists | altered the morphology | increase of body weight | reduced |  |  |  | increased | more than 50% | without any associated toxicity or changes in body weight | ~75% | ~85%
